# Results published in patent US6130250A, “Veterinary use of a pleuromutilin derivative” (priority 1996, dated 2000).
# Read-outs that look alike come from different tables or passages of the source.
# Assays:
# [1] = pig; cited from earlier work
# coccidia = settings: fowl; cited from earlier work
# [2] = hen; cited from earlier work
# Mycoplasma hyosynoviae = experiment: MIC assay, 7 field isolates of Mycoplasma hyosynoviae; assay type: cell-based; settings: Mycoplasma; 7 field isolates
# Protocol: Tissue samples are obtained from the lungs of pigs from various enzootic pneumonia of pigs (EPP)--affected herds. Samples are shipped on dry ice for culture. Four isolates from lung samples initially isolated for recovery of Mycoplasma hyopneumoniae were reisolated for Mycoplasma hyosynoviae after it had been noted from the lung samples submitted (re-stored at -70° C.), during culture for M. hyopneumoniae, that some samples yielded luxuriant growth of colonies having the typical morphology of Mycoplasma hyosynoviae. Three further isolates were recovered from other lung samples provided. All isolates were serologically identified by disc growth inhibition with specific rabbit antiserum raised against Mycoplasma hyosynoviae. A commerically available solid medium (Mycoplasma Experience Ltd.) is used to isolate M. hyosynoviae from lung tissue. A liquid medium (Mycoplasma Experience Ltd.) containing phenol red and arginine (pH 7.0) is used for the MIC assay.
# (§1) Stock solutions of test compound are prepared at 1 mg/ml concentration in deionised water, sterilised by filtration through 0.2μ pore size membrane filters (Sartorius Minisart, N) and stored at -20° C. For use in the MIC tests the stock solutions are diluted in liquid medium to double the final concentrations required. MIC tests are carried out according to the method of Tanner and Wu, Avian Diseases 36 (1992) 714-717. Actively growing challenge cultures are prepared either from 1 ml aliquots of broth cultures stored at -70° C. or from cultures stored on agar at -70° C. The challenge cultures are diluted to give a target titre of 10^3 to 10^5 colour changing units/ml. 0.1 ml aliquots of challenge inocula are mixed with 0.1 ml aliquots of antibiotic dilution in microtitre wells. Each microtitre plate contains uninoculated media at pH 7.6 (end point control) and antibiotic-free inoculated challenge controls. All plates are sealed with adhesive film and incubated aerobically at 36° C. MICs are recorded when the colour change in the challenge control wells matches the pH of the end point control. The MIC is the lowest concentration showing no colour change.
# M. hyopneumoniae = experiment: MIC, microtitre broth, ten field isolates and type strain J of M. hyopneumoniae; assay type: cell-based, Mycoplasma hyopneumoniae
# Excerpt: Tissue samples are obtained from the lungs of pigs from various enzootic pneumonia of pigs (EPP)-affected herds. Samples are shipped on dry ice for culture. M. hyopneumoniae is recovered from freshly sectioned lung tissue by direct culture onto Mycoplasma Experience agar. This technique allows the distinctive colonies of M. hyopneumoniae to be recognised and readily separated, by cloning from other faster growing mycoplasma species such as Mycoplasma hyorhinis, often present in EPP lung samples. Isolates are subcultured and identified by disc growth inhibition using specific rabbit antiserum raised to M. hyopneumoniae NCTC 10110.
# Cultures for antibiotic challenge are prepared in Mycoplasma Experience broth, incubated aerobically at 36° C.
# A commercially available solid medium (Mycoplasma Experience Ltd.) is used to isolate M. hyopneumoniae from lung tissue. A liquid medium (Mycoplasma Experience Ltd.) containing phenol red and glucose (pH 7.6) is used for the MIC assays.
# as §1, with “Tanner &” for “Tanner and”, “pH 6.8 (M. hyopneumoniae)” for “pH 7.6”, “wells match” for “wells matches”
# [3] = Mesomycoplasma hyopneumoniae, field strains (n = 10)
MIC (Mycoplasma hyosynoviae),"MIC (M. hyopneumoniae; Mesomycoplasma hyopneumoniae, NCTC10110, Type Strain J (NCTC 10110), read-out: MIC)",MIC50 (M. hyopneumoniae; [3]),MIC90 (M. hyopneumoniae; [3]),"MIC (M. hyopneumoniae; Mesomycoplasma hyopneumoniae, field strains (n = 10), read-out: MIC range)",SMILES,dosage showing growth-promoting activity [1],dosage showing activity against coccidia (coccidia),dosage showing growth-promoting activity [2],susceptibility of field isolates (M. hyopneumoniae; field isolates)
,,,,,"C=C[C@]1(C)C[C@@H](OC(=O)CSC(C)(C)CNC(=O)[C@H](N)C(C)C)[C@]2(C)[C@H](C)CC[C@]3(CCC(=O)[C@H]32)[C@@H](C)[C@@H]1O [compound of formula I, 14-O-[1-[(R)-2-amino-3-methylbutyrylamino]-2-methylpropan-2-ylthioacetyl]mutilin]",10-50 mg/kg of feed,20-150 mg/kg of feed,10-50 mg/kg of feed,
0.025 to 0.25 µg/mL,0.025 µg/mL,0.005 µg/mL,0.01 µg/mL,0.0025 to 0.025 µg/mL,CCN1CCN(c2cc3c(cc2F)c(=O)c(C(=O)O)cn3C2CC2)CC1 [enrofloxacin],,,,very good sensitivity
